Patent US4536571A, “Selenium-containing platinum compound” (priority 1983, dated 1985)

What was measured:
[1] = system: Cisplatin induced nephrotoxicity (blood urea nitrogen); test: BUN determination in Cisplatin-treated mice, sodium selenite time course (Table 1); assay type: in vivo, BDF1 mice
Experimental: (§1) BUN of the mice which have been administered a platinum complex increases due to the platinum poisoning in the kidney. […] The method of negating platinum toxicity of the present invention will be illustrated in more detail by way of Examples later.
(§2) Sodium selenite was administered to the peritoneal cavities of the mice at a dosage of 6.3 mg/kg. […] BUN of the mice was determined on the fourth day from the date of the administration. […] BUN of these control groups was also determined.
*^1 Average BUN value of mice which was determined on the fourth day
*^3 The figure in parentheses means the number of dead mice.

[2] = system: Cisplatin induced nephrotoxicity (blood urea nitrogen); test: BUN determination in Cisplatin-treated mice, sodium selenite time course (Table 2); assay type: in vivo, BDF1 mice; conditions: for number of dead mice: fourth day
Experimental: as §1, §2

[3] = LD50 of Selenium Compounds; conditions: mouse, in vivo, ip; intraperitoneal route, BDF1 male mice
Experimental: Our studies were carried out in BDF1 male mice weighing approximately 25 grams. All solutions were freshly were daily and given by the intraperitoneal route.

[4] = system: Cisplatin induced nephrotoxicity (blood urea nitrogen); test: BUN determination in Cisplatin-treated mice, sodium selenite dose series (Table 3); assay type: in vivo, BDF1 mice
Experimental: as §1
BUN of the mice was dertermined on the fourth day from the date of administration and on the eleventh day from the date of the administration. […] BUN of these control groups was also determined.

cadmium toxicity = conditions: in vivo; cited from earlier work
[5] = system: nephrotoxic effects of Cisplatin; conditions: female rats; 750 mg/kg intraperitoneally or 100 mg/kg intravenously; cited from earlier work
[6] = sodium selenite 6.3 mg/kg i.p. 2 hours before Cisplatin 14 mg/kg i.p.
[7] = sodium selenite 6.3 mg/kg i.p. 4 hours before Cisplatin 14 mg/kg i.p.
[8] = sodium selenite 6.3 mg/kg i.p. simultaneously with Cisplatin 14 mg/kg i.p.
[9] = sodium selenite 6.3 mg/kg i.p. 3 hours before Cisplatin 14 mg/kg i.p.
[10] = sodium selenite 6.3 mg/kg i.p. 6 hours before Cisplatin 14 mg/kg i.p.
[11] = sodium selenite 1 mg/kg i.p. 2 hours before Cisplatin 14 mg/kg i.p.
[12] = sodium selenite 2 mg/kg i.p. 2 hours before Cisplatin 14 mg/kg i.p.
[13] = sodium selenite 4 mg/kg i.p. 2 hours before Cisplatin 14 mg/kg i.p.
[14] = sodium selenite 6 mg/kg i.p. 2 hours before Cisplatin 14 mg/kg i.p.
[15] = sodium selenite 8 mg/kg i.p. 2 hours before Cisplatin 14 mg/kg i.p.

O=[Se](O)O [Sodium selenite, sodium selenite]
number of dead mice ([1]; fourth day, sodium selenite 6.3 mg/kg i.p. 2 hours before Cisplatin 14 mg/kg i.p.): 2
BUN (≥30) on the fourth day, mice ([1]; sodium selenite 6.3 mg/kg i.p. 1 hour after Cisplatin 14 mg/kg i.p.): 5/5
BUN (≥30) on the fourth day, mice [1, 6]: 1/3
BUN (≥30) on the fourth day, mice [1, 7]: 4/5
BUN (≥30) on the fourth day, mice [1, 8]: 2/5
BUN (≥30) on the fourth day, mice ([1]; sodium selenite 6.3 mg/kg only, i.p.): 0/5
number of dead mice [2, 9]: 1
number of dead mice [2, 7]: 1
number of dead mice [2, 10]: 1
number of dead mice [2, 8]: 1
BUN (≥30) on the fourth day, mice ([2]; sodium selenite 6.3 mg/kg i.p. 1 hour before Cisplatin 14 mg/kg i.p.): 3/5
BUN (≥30) on the fourth day, mice [2, 6]: 1/5
BUN (≥30) on the fourth day, mice [2, 9]: 1/4
BUN (≥30) on the fourth day, mice [2, 7]: 2/4
BUN (≥30) on the fourth day, mice [2, 10]: 2/4
BUN (≥30) on the fourth day, mice [2, 8]: 2/4
LD50 [3]: 3.25 to 3.5 mg/kg
number of dead mice ([4]; eleventh day, sodium selenite 2 mg/kg i.p. 2 hours before Cisplatin 14 mg/kg i.p.): 1
number of dead mice ([4]; eleventh day, sodium selenite 4 mg/kg i.p. 2 hours before Cisplatin 14 mg/kg i.p.): 2
number of dead mice ([4]; eleventh day, sodium selenite 6 mg/kg i.p. 2 hours before Cisplatin 14 mg/kg i.p.): 1
number of dead mice ([4]; eleventh day, sodium selenite 8 mg/kg i.p. 2 hours before Cisplatin 14 mg/kg i.p.): 1
number of dead mice ([4]; fourth day, sodium selenite 4 mg/kg i.p. 2 hours before Cisplatin 14 mg/kg i.p.): 1
number of dead mice ([4]; fourth day, sodium selenite 8 mg/kg i.p. 2 hours before Cisplatin 14 mg/kg i.p.): 1
BUN (≥30) on the eleventh day, mice [4, 11]: 1/5
BUN (≥30) on the fourth day, mice [4, 11]: 3/5
BUN (≥30) on the eleventh day, mice [4, 12]: 0/4
BUN (≥30) on the fourth day, mice [4, 12]: 1/5
BUN (≥30) on the eleventh day, mice [4, 13]: 0/3
BUN (≥30) on the fourth day, mice [4, 13]: 1/4
BUN (≥30) on the eleventh day, mice [4, 14]: 0/4
BUN (≥30) on the fourth day, mice [4, 14]: 1/5
BUN (≥30) on the eleventh day, mice [4, 15]: 0/4
BUN (≥30) on the fourth day, mice [4, 15]: 1/4

[Se] [selenium]
cadmium induced testicular damage (cadmium toxicity): prevents

N[C@@H](C[Se][Se]C[C@H](N)C(=O)O)C(=O)O [selenocystine]
LD50 [3]: 4 mg/kg

CCN(CC)C(=S)[S-].[Na+] [sodium diethyldithiocarbamate]
nephrotoxic effects of Cisplatin [5]: effectively inhibited

O=[Se](=O)(O)O [sodium selenate]
LD50 [3]: 5.25 to 5.75 mg/kg
